Assay results from publication PMC9926234, “Iterative computational design and crystallographic screening identifies potent inhibitors targeting the Nsp3 macrodomain of SARS-CoV-2” (Proceedings of the National Academy of Sciences of the …, 2023).
Values joined by “and” are separate entries in the source; they are usually repeats but may differ in a detail not shown here. Equal entries are not always repeated. Where two headings read alike, the source gives them in different places.

How the values were obtained:
[1] = tested on: P-glycoprotein (human MDR1); assay: MDR1-MDCK II cell permeability; details: dog, MDCK-MDR1, pH 7.4
TARG1 = molecular target: T1, TARG1 (Homo sapiens, UniProt Q9Y530); assay: adapted HTRF-based peptide displacement assay (off-target); type: binding
T1 construct: Targ1_HTRF; HTRF assay; pET22b(+); His6, TEV; 1-153; made in house
T1 sequence (Q9Y530 with tags, fused parts or gaps): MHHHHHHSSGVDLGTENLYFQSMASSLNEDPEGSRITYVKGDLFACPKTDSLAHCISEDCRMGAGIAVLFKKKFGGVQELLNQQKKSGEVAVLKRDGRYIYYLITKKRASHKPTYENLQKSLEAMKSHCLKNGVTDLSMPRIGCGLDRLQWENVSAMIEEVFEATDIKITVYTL

SARS-CoV-2 NSP3 Mac1 [2] = molecular target: T2, SARS-CoV-2 NSP3 Mac1 (Severe acute respiratory syndrome coronavirus 2, UniProt P0DTD1); type: binding; details: for HIT*: true hit = binding in crystallographic soaking or the HTRF-based binding assay
MDR1-MDCKII cells = assay: MDR1-MDCK II cell permeability; details: MDR1-MDCKII cells
SARS-CoV-2 NSP3 Mac1 [3] = molecular target: T2, SARS-CoV-2 NSP3 Mac1; type: binding; parameters: contains a conserved macrodomain enzyme (Mac1); details: for Spearman est (compound concentration vs apparent Tm): DSF dose responsiveness, 1 µM nsp3 mac1, adj p given; for DSF max dTma: maximal thermal upshift
Method in brief: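 Differential scanning fluorimetry using 5 µM Fluorescent Yellow dye in place of SYPRO Orange. Compounds run in triplicate at seven two-fold dilutions from 1,000 or 100 μM, with ΔTma taken against a DMSO control in the same plate region. Dose-response significance assessed by Spearman's coefficient between concentration and ΔTma.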

MacroD2 = molecular target: T3, MacroD2 (Homo sapiens, UniProt A1Z1Q3); assay: adapted HTRF-based peptide displacement assay (off-target); type: binding
T3 construct: MacroD2_HTRF; HTRF assay; pET22b(+); His6, TEV, Avi; made in house
T3 sequence (A1Z1Q3 with tags, fused parts or gaps): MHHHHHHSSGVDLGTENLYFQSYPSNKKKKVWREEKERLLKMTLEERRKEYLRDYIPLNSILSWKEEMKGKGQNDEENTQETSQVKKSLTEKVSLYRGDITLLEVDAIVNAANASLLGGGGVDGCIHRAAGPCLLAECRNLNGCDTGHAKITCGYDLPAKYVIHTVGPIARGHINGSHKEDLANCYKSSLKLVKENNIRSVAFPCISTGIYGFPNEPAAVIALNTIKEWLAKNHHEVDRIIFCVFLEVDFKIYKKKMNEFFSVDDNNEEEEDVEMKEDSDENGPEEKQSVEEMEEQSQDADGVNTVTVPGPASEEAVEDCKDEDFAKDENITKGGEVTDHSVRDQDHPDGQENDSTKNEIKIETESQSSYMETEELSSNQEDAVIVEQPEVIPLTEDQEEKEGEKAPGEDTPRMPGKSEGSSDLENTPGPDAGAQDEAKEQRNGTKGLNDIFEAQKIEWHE

SARS-CoV-2 NSP3 Mac1 [4] = molecular target: T2, SARS-CoV-2 NSP3 Mac1; assay: biochemical; type: binding; details: for IC50: read-out: IC50; for Ki: Ki estimation from HTRF-derived IC50, Cheng-Prusoff, peptide 400nM, Kd 2.68µM, read-out: Ki***
SARS-CoV-2 NSP3 Mac1 [5] = molecular target: T2, SARS-CoV-2 NSP3 Mac1; parameters: contains a conserved macrodomain enzyme (Mac1); differential scanning fluorimetry, maximum thermal upshift; details: binder
[6] = tested on: P-glycoprotein (human MDR1); assay: in vitro; details: dog, MDCK-MDR1, pH 7.4
[7] = PanDDA 1-BDC value of the event, crystal soak, compound concentration 100 mM, per dataset
[8] = PanDDA event map, 1 minus background density correction, crystal soaking of Mac1
[9] = crystal soak, compound concentration 100 mM, per dataset
[10] = HTRF ADPr-peptide displacement from SARS-CoV-2 Mac1

CC(C(=O)O)c1cccc(C(=O)c2ccccc2)c1 (centres unmarked) [Ketoprofen]
Papp A→B at 90 min, 10 µM [1]: 17.6 ± 2.5 ×10⁻⁶ cm/s | Papp B→A at 90 min, 10 µM [1]: 16.1 ± 0.5 ×10⁻⁶ cm/s

O=C(O)C1(F)CN(c2ncnc3[nH]c4cc(F)ccc4c23)CC12CCC2 (centres unmarked) [LL1_0023]
displacement of the ADPr-conjugated peptide (off-target activity) (TARG1; compound at 50 µM): active | displacement of the ADPr-conjugated peptide (off-target activity) (TARG1; compound at 1 mM): 50% | 1-BDC (SARS-CoV-2 NSP3 Mac1 [2]; [7]): 0.28 | 1-BDC (PanDDA) (SARS-CoV-2 NSP3 Mac1 [2]; [8]): 0.16 | PanDDA hit? (SARS-CoV-2 NSP3 Mac1 [2]; [9]): TRUE | Modeled? (SARS-CoV-2 NSP3 Mac1 [2]; ligand modeled from this dataset, compound concentration 100 mM): TRUE | Refined occupancy (SARS-CoV-2 NSP3 Mac1 [2]; ligand occupancy after refinement (phenix.refine), crystal soaking of Mac1): 32 | HIT* (SARS-CoV-2 NSP3 Mac1 [2]): Y | permeability relative to the Z8539 scaffold (MDR1-MDCKII cells): 3 fold | Spearman est (compound concentration vs apparent Tm) (SARS-CoV-2 NSP3 Mac1 [3]): 0.98 | DSF max dTma (SARS-CoV-2 NSP3 Mac1 [3]): 4.53 ˚C | displacement of the ADPr-conjugated peptide (off-target activity) (MacroD2; compound at 1 mM): 50% | IC50 (SARS-CoV-2 NSP3 Mac1 [4]; [10]): 6 to 10 µM and 5.8 to 10.9 µM | IC50 (SARS-CoV-2 NSP3 Mac1 [4]; HTRF): 5.8 µM and 10.9 µM | Ki (SARS-CoV-2 NSP3 Mac1 [4]): 5 µM and 9.5 µM

O=C(c1cn[nH]c(=O)c1)N1CCC(CF)(C(=O)O)C1 (centres unmarked) [R8407, REAL250001448407]
DSF max dTma (SARS-CoV-2 NSP3 Mac1 [5]): 0 degC

Nc1ncnc2c1ncn2Cc1ccc(Cl)cn1 [Z0078, ZINC000559260078]
DSF max dTma (SARS-CoV-2 NSP3 Mac1 [5]): 0.98 degC

Nc1ncnc2c1ncn2Cc1cccc(C(F)(F)F)c1 [Z0893, ZINC000110510893]
DSF max dTma (SARS-CoV-2 NSP3 Mac1 [5]): 0.5 degC

CC(CSc1nnc2[nH]cnn12)c1ccccc1 (centres unmarked) [Z3280, ZINC000920153280]
DSF max dTma (SARS-CoV-2 NSP3 Mac1 [5]): 0 degC

Nc1ncnc2c1ncn2Cc1cc(-c2ccco2)on1 [Z4827, ZINC000681764827]
DSF max dTma (SARS-CoV-2 NSP3 Mac1 [5]): 0.63 degC

O=C(NC1c2cccc(O)c2CC1C(=O)O)c1ccc2[nH]c(CO)nc2c1 (centres unmarked) [Z8539_0002]
selectivity for viral Mac1 over human macrodomain (TARG1; versus TARG1, in words): selective for viral Mac1 | 1-BDC (SARS-CoV-2 NSP3 Mac1 [2]; [7]): 0.26 | 1-BDC (SARS-CoV-2 NSP3 Mac1 [2]; PanDDA event map background density correction, crystal soak, compound concentration 100 mM): 0.19 | 1-BDC (SARS-CoV-2 NSP3 Mac1 [2]; [8]): 0.29 | 1-BDC (PanDDA) (SARS-CoV-2 NSP3 Mac1 [2]; [8]): 0.19 | 1-BDC (SARS-CoV-2 NSP3 Mac1 [2]; PanDDA event map, crystal soak, Compound_concentration 100 mM, Echo_dispense_volume 40 nl): 0.29 | PanDDA hit? (SARS-CoV-2 NSP3 Mac1 [2]; crystal soak, Compound_concentration 100 mM, Echo_dispense_volume 40 nl, PanDDA run (background map) dmso_34, nohits_35 or nohits_62): TRUE | PanDDA hit? (SARS-CoV-2 NSP3 Mac1 [2]; [9]): TRUE | Modeled? (SARS-CoV-2 NSP3 Mac1 [2]; ligand modeled from this dataset, compound concentration 100 mM, Echo dispense volume 40 or 80 nl): TRUE | Modeled? (SARS-CoV-2 NSP3 Mac1 [2]; ligand modeled in the crystal structure, crystal soak, compound concentration 100 mM): TRUE | HIT* (SARS-CoV-2 NSP3 Mac1 [2]): Y | Spearman est (compound concentration vs apparent Tm) (SARS-CoV-2 NSP3 Mac1 [3]): 0.74 | DSF max dTma (SARS-CoV-2 NSP3 Mac1 [3]): 5.39 ˚C | selectivity for viral Mac1 over human macrodomain (MacroD2; versus MacroD2, in words): selective for viral Mac1 | IC50 (SARS-CoV-2 NSP3 Mac1 [4]; [10]): 1.3 to 6.7 µM | IC50 (SARS-CoV-2 NSP3 Mac1 [4]; HTRF): 1.3 µM and 6.7 µM | Ki (SARS-CoV-2 NSP3 Mac1 [4]): 1.1 µM and 5.8 µM | Papp A→B [6]: 0.8 ± 0.2 ×10⁻⁶ cm/s | Papp B→A [6]: 1.4 ± 1 ×10⁻⁶ cm/s
